{"source": "patent US20250011298A1", "about": "“CRYSTALLINE FORMS OF A CDK9 INHIBITOR AND USES THEREOF” (PRELUDE THERAPEUTICS INCORPORATED, priority 2021, published 2025)", "assay": "Thermogravimetric analysis (TGA) of crystalline forms", "type": "physicochemical", "conditions": "TGA thermogram; ramp from 25° C. to 600° C. at 20° C./min, nitrogen purge", "experimental": "Crystalline forms of the compound of Formula I were analyzed using a TA Instruments Thermogravimetric Analyzer, TGA Q500 with autosampler. The general experimental conditions for TGA were ramp from 25° C. 600° C. at 20° C./min; nitrogen purge, gas flow at 25 mL/min; platinum sample pan.", "data": [{"compound": "Cc1cnc(NC(=O)[C@H]2CCC[C@@H](NC(=O)CC#N)C2)cc1-c1cc(F)c2ncn(C(C)C)c2c1", "note": "[Form II]", "values": [{"measurement": "TGA: degradation occurring after", "result": "> 176", "unit": "°C"}]}, {"compound": "Cc1cnc(NC(=O)[C@H]2CCC[C@@H](NC(=O)CC#N)C2)cc1-c1cc(F)c2ncn(C(C)C)c2c1", "note": "[Form I]", "values": [{"measurement": "TGA: degradation occurring after", "result": "> 176", "unit": "°C"}]}]}
